Source: patent US20060035879A1, “Organic Compounds” (priority 2002, published 2006)

Key:
[1] = system: New Zealand White rabbit iliac arteries; assay: Rabbit iliac stent model (in-stent restenosis); type: in vivo; settings: oral gavage, vs placebo
Method: Inhibition of In-Stent Restenosis and Proximal and Distal Lesion Development at 28 Days in the Rabbit Iliac Stent Model A combined angioplasty and stenting procedure is performed in New Zealand White rabbit iliac arteries. Iliac artery balloon injury is performed by inflating a 3.0×9.0 mm angioplasty balloon in the mid-portion of the artery followed by “pull-back” of the catheter for 1 balloon length. Balloon injury is repeated 2 times, and a 3.0×12 mm stent is deployed at 6 atm for 30 seconds in the iliac artery. Balloon injury and stent placement is then performed on the contralateral iliac artery in the same manner. A post-stent deployment angiogram is performed. All animals receive oral aspirin 40 mg/day daily as anti-platelet therapy and are fed standard low-cholesterol rabbit chow. Twenty-eight days after stenting, animals are anesthetized and euthanized and the arterial tree is perfused at 100 mmHg with lactated Ringer's solution for several minutes, then perfused with 10% formalin at 100 mmHg for 15 minutes. The vascular section between the distal aorta and the proximal femoral arteries is excised and cleaned of periadventitial tissue. Three sections of artery are sampled: the stented section, the artery 5 mm immediately proximal to the stent and the artery 5 mm immediately distal to the stent is embedded in plastic. Sections are taken from the proximal, middle, and distal portions of each stent. Serial sections are also taken of the first 2 mm proximal and distal to the stent. Sections are stained with hematoxylin-eosin and Movat pentachrome stains. […] The neointima and neointimal thickness is measured both at and between the stent struts. The vessel area is measured as the area within the EEL. Cells staining positively as macrophages are counted in the sections taken from the stented area of artery. Data are expressed as mean ±SEM. Statistical analysis of the histologic data is accomplished using ANOVA due to the fact that two stented arteries are measured per animal with a mean generated per animal. […]

[2] = Drug release from polymer coatings in plasma; type: physicochemical; settings: citrated human plasma, 37°, changed daily; stable = less than 10% variation of the drug release rate
Method: (§1) A stent (e.g. a Multi-Link Vision stent, Guidant Corp.; or a DRIVER stent, Medtronic Corp.) is weighed and then mounted on a rotating or other support for coating with a polymeric or other synthetic or biological carrier used as a drug reservoir. In an exemplary carrier application procedure, while the stent is rotating, a 100 μl aliquot of a solution of polylactide glycolide, 0.75 mg/ml of pimecrolimus and 0.0015 mg/ml 2,6-di-tert-butyl-4-methylphenol dissolved in a 50:50 mixture of methanol and tetrahydrofuran, is coated onto it. The coated stent is removed from the support and allowed to air-dry. After a final weighing the amount of coating on the stent is determined.
Drug Release from Polymer Coatings in Plasma
Release of pimecrolimus in plasma is also studied. 1 cm pieces of a coated stent are put into 1 ml of citrated human plasma (from Helena Labs) in lyophilized form and reconstituted by adding 1 ml of sterile deionized water. Three sets of stent plasma solutions are incubated at 37° and the plasma is changed daily. Different assays are performed on the solution to determine the released pimecrolimus concentrations.

[3] = Drug release from polymer coatings in aqueous solution; type: physicochemical; settings: PBS pH 7.4 or PEG/water 40/60 v/v, 37°, solutions changed daily; stable = less than 10% variation of the drug release rate
Method: as §1
Drug Release from Polymer Coatings in Aqueous Solution
Four 2 cm pieces of stents coated as described in Example 3 above are placed into 100 ml of PBS having a pH of 7.4. Another 4 pieces from each series are placed into 100 ml of PEG/water solution (40/60 v/v, MW of PEG=400). The stent pieces are incubated at 37° in a shaker. The buffer and PEG solutions are changed daily and different assays are performed on the solution to determine the released pimecrolimus concentrations. […] The term “stable pimecrolimus” means that less than 10% variation of the drug release rate is observed.

[4] = system: rat carotid artery balloon injury; assay: Rat carotid artery balloon injury model; type: in vivo
[5] = system: allogeneic kidney transplantation; settings: oral administration; cited from earlier work

Compound	extent of restenotic lesion formation ([1]; 28 days after stenting)	lesion formation in the portions of artery immediately proximal and immediately distal to the stent ([1]; 28 days)	number of inflammatory cells, especially in the area surrounding the stent struts ([1]; 28 days)	pimecrolimus release from coated stents in plasma [2]	pimecrolimus release from coated stents [3]	constrictive remodeling ([4]; local administration to the adventitia)	infiltration of CD45+ leukocytes ([4]; local administration to the adventitia via catheter/Alzet minipump, day 1)	early and late neointimal lesions ([4]; local administration to the adventitia, early 9 days and late 21-28 days post-ballooning)	CD45-positive leukocyte infiltration into the vessel wall and adventitia ([4]; oral dosing, 1 day post-balloon injury)	neointimal lesion formation following balloon injury ([4]; oral dosing, at 9 and 12 days)	minimum effective dose (MED) [5] [mg/kg]
CC[C@@H]1/C=C(\C)C[C@H](C)C[C@H](OC)[C@H]2O[C@@](O)(C(=O)C(=O)N3CCCC[C@H]3C(=O)O[C@H](/C(C)=C/[C@@H]3CC[C@H](Cl)[C@H](OC)C3)[C@H](C)[C@@H](O)CC1=O)[C@H](C)C[C@@H]2OC [pimecrolimus, {[1E-(1R,3R,4S)]1R,9S,12S,13R,14S,17R,18E,21S,23S,24R,25S,27R}-12-[2-(4-chloro-3-methoxycyclohexyl)-1-methylvinyl]-17-ethyl-1,14-dihydroxy-23,25-dimethoxy-13,19,21,27-tetramethyl-11,28,dioxa-4-azatricyclo [22.3.1.0(4,9)]octacos-18-ene-2,3,10,16-tetraone]	marked reduction	inhibited	significantly reduced	stable pimecrolimus release	stable pimecrolimus release	potent inhibition	potent inhibition	potent inhibition	significantly reduce	significantly reduce	–
C=CC[C@@H]1/C=C(\C)C[C@H](C)C[C@H](OC)[C@H]2O[C@@](O)(C(=O)C(=O)N3CCCC[C@H]3C(=O)O[C@H](/C(C)=C/[C@@H]3CC[C@@H](O)[C@H](OC)C3)[C@H](C)[C@@H](O)CC1=O)[C@H](C)C[C@@H]2OC [tacrolimus]	–	–	–	–	–	–	–	–	–	–	14
